Each compound was assayed against T1, c-Kit (Homo sapiens, UniProt P10721) (assay: c-kit kinase inhibition). Settings: Table 4.
T1 construct: whole cytoplasmic domain of c-Kit (aa 544-976); made in house; host or cells: Sf9 or High Five (baculovirus)
T1 sequence (P10721 544-976): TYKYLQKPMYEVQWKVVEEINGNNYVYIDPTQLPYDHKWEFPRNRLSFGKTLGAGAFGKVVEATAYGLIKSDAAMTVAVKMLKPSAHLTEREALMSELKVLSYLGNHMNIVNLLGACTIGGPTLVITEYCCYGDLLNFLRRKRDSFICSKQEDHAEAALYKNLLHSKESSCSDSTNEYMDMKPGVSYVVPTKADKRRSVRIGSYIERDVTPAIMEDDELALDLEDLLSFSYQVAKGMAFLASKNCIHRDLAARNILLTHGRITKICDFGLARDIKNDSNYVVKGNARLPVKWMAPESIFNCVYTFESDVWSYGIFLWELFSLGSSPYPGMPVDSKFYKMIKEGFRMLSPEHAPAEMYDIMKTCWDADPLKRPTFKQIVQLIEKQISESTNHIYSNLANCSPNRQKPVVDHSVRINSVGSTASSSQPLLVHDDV
Assay type: biochemical
In the case of `CN1CCN(c2ccc(-c3cnn4c(N)c(-c5cccc(O)c5)cnc34)cc2)CC1` [Example 1, 3-{7-Amino-3-[4-(4-methyl-piperazin-1-yl)-phenyl]-pyrazolo[1,5-a]pyrimidin-6-yl}-phenol], the IC50 is reported as < 10 µM.

Each compound was assayed against T2, human EphB4 (Homo sapiens, UniProt P54760) (assay: Cellular assay EphB4 receptor autophosphorylation, transfected A375 cells, sandwich ELISA). Settings: inhibition of autophosphorylation of EphB4 kinase, Table 6.
T2 construct: expressed in transfected cells; host or cells: A375 human melanoma cells (ATCC CRL-1619)
T2 sequence (P54760 16-987): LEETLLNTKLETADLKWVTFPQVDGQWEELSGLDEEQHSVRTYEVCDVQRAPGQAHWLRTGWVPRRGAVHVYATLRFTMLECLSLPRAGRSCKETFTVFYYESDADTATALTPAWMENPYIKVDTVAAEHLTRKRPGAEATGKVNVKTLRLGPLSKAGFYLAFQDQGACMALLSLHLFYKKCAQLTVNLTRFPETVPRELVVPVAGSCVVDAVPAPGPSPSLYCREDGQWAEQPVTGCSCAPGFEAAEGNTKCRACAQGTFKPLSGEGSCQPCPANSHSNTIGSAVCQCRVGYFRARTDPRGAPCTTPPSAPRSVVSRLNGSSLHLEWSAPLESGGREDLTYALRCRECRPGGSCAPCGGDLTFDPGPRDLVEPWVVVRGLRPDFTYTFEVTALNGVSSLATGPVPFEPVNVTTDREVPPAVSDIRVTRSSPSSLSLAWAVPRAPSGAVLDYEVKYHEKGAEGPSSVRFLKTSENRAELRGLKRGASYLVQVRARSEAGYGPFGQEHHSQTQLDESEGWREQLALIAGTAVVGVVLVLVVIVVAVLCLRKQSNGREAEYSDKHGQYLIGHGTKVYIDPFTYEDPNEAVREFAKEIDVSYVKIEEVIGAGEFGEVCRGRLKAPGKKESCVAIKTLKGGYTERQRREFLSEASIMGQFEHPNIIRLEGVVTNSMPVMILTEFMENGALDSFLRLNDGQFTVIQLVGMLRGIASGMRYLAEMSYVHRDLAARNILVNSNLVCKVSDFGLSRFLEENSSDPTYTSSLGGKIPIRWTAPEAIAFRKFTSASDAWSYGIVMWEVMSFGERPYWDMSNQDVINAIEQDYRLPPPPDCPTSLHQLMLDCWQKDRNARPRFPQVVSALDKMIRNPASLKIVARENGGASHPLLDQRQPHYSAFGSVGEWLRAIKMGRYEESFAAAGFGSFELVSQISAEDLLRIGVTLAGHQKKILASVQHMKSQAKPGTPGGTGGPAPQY
Assay type: cell-based
Procedure: The inhibition of EphB4 receptor autophosphorylation can be confirmed with an in vitro experiment in cells such as transfected A375 human melanoma cells (ATCC Number: CRL-1619), which permanently express human EphB4 (SwissProt AccNo P54760), are seeded in complete culture medium (with 10% fetal calf serum=FCS) in 6-well cell-culture plates and incubated at 37° C. under 5% CO2 until they show about 90% confluency. The compounds to be tested are then diluted in culture medium (without FCS, with 0.1% bovine serum albumin) and added to the cells. (Controls comprise medium without test compounds). Ligand induced autophosphorylation is induced by the addition of 1 microg/ml soluble ephrinB2-Fc (s-ephrinB2-Fc: R&D Biosystems, CatNr 496-EB) and 0.1 microM ortho-vanadate. After a further 20 minutes incubation at 37° C., the cells are washed twice with ice-cold PBS (phosphate-buffered saline) and immediately lysed in 200 μl lysis buffer per well. The lysates are then centrifuged to remove the cell nuclei, and the protein concentrations of the supernatants are determined using a commercial protein assay (PIERCE). The lysates can then either be immediately used or, if necessary, stored at −20° C.
A sandwich ELISA is carried out to measure the EphB4 phosphorylation: To capture phosphorylated EphB4 protein 100 ng/well of ephrinB2-Fc (s-ephrinB2-Fc: R&D Biosystems, CatNr 496-EB) is immobilized MaxiSorb (Nunc) ELISA plates. The plates are then washed and the remaining free protein-binding sites are saturated with 3% TopBlock® (Juro, Cat. # TB232010) in phosphate buffered saline with Tween 20° (polyoxyethylen(20)sorbitane monolaurate, ICI/Uniquema) (PBST). The cell lysates (100 μg protein per well) are then incubated in these plates for 1 h at room temperature. After washing the wells three times with PBS an antiphosphotyrosine antibody coupled with alkaline phosphatase (PY 20 Alkaline Phosphate conjugated: ZYMED, Cat Nr03-7722) is added and incubated for another hour. […] The difference between the signal of the positive control (stimulated with vanadate and s-ephrinB2-Fc) and that of the negative control (not stimulated) corresponds to maximal EphB4 phosphorylation (=100%). The activity of the tested substances is calculated as percent inhibition of maximal EphB4 phosphorylation, wherein the concentration of substance that induces half the maximum inhibition is defined as the IC50 (inhibitory dose for 50% inhibition). […] The mice are treated with the test compound (e.g. 25, 50 or 100 mg/kg p.o. once daily) or vehicle starting on the day of implantation of the chamber and continuing for 4 days after. At the end of the treatment, the mice are killed, and the chambers are removed. The vascularized tissue growing around the chamber is carefully removed and weighed, and the blood content is assessed by measuring the hemoglobin content of the tissue (Drabkins method; Sigma, Deisenhofen, Germany). It has been shown previously that these growth factors induce dose-dependent increases in weight and blood content of this tissue growing (characterized histologically to contain fibroblasts and small blood vessels) around the chambers and that this response is blocked by antibodies that specifically neutralize VEGF (see Wood J M et al., Cancer Res. 60(8), 2178-2189, (2000); and Schlaeppi et al., J. Cancer Res. Clin. Oncol. 125, 336-342, (1999)). With this model, inhibition can be shown in the case of compounds of the formula (I).
`Cc1nc2c(-c3cccc(N4CCN(C)CC4)c3)cnn2c(N)c1-c1ccc(F)cc1` [Example 80, 6-(4-Fluoro-phenyl)-5-methyl-3-[3-(4-methyl-piperazin-1-yl)-phenyl]-pyrazolo[1,5-a]pyrimidin-7-ylamine] was tested, and the IC50 was < 1 µM. `Cc1nc2c(-c3ccc(N4CCN(C)CC4)cc3)cnn2c(N)c1-c1ccc(F)c(Cl)c1` [Example 83, 6-(3-Chloro-4-fluoro-phenyl)-5-methyl-3-[4-(4-methyl-piperazin-1-yl)-phenyl]-pyrazolo[1,5-a]pyrimidin-7-ylamine] was tested, and the IC50 was < 1 µM. For `Cc1nc2c(-c3cccc(N4CCN(CCO)CC4)c3)cnn2c(N)c1-c1cccc(Cl)c1` [Example 90, 2-(4-{3-[7-Amino-6-(3-chloro-phenyl)-5-methyl-pyrazolo[1,5-a]pyrimidin-3-yl]-phenyl}-piperazin-1-yl)-ethanol], the IC50 was < 1 µM. With `COc1ccc(-c2cnn3c(N)c(-c4cccc(Cl)c4)c(C)nc23)cc1OC` [Example 93, 6-(3-Chloro-phenyl)-3-(3,4-dimethoxy-phenyl)-5-methyl-pyrazolo[1,5-a]pyrimidin-7-ylamine] the IC50 was < 1 µM. In the case of `Cc1nc2c(-c3cccc(N4CCN(CCO)CC4)c3)cnn2c(N)c1-c1ccc(F)c(Cl)c1` [Example 100, 2-(4-{3-[7-Amino-6-(3-chloro-4-fluoro-phenyl)-5-methyl-pyrazolo[1,5-a]pyrimidin-3-yl]-phenyl}-piperazin-1-yl)-ethanol], the IC50 is reported as < 1 µM.

From patent US20090099167A1, “Organic compounds” (Novartis Institutes for Biomedical Research, priority 2004, published 2009)
